Measurements: patent US4375513A, “Biologically pure culture of Actinoplanes missouriensis” (Eli Lilly and Company, priority 1981, dated 1983)
Structures can show the parent of a compound that is named as a salt.

Assays:
[1] = system: Actinoplanes Strain ATCC 31680; assay: antibiotic sensitivity of Actinoplanes strain ATCC 31680; assay type: cell-based, Actinoplanes missouriensis
Description: (§1) The methods used for the taxonomic studies of strains ATCC 31680, ATCC 31682, and ATCC 31683 are well known to those skilled in the art and in large part are methods recommended for the International Streptomyces Project (ISP), described by Shirling and Gottlieb, 1966, Intern. J. of Systematic Bacteriol. 16(3):313-340. Enzyme assays were carried out according to the methods of Blazevic and Ederer, 1975, Principles of Biochemical Tests in Diagnostic Microbiology, John Wiley and Sons. Inc., New York, and color names, abbreviations, and numbers were assigned using the ISCC-NBS method of Kelly and Judd, 1976, The ISCC-NBS Centroid Color Charts Standard Sample No. 2106, U.S. Dept. of Commerce, National Bureau of Standards, Washington D.C. Lysozyme resistance and the decomposition of casein, esculin, hypoxanthine, tyrosine, and xanthine were measured using the procedure of Berg, 1973, Appl. Microbiol. 25:665-681. Carbon utilization studies were also completed and are stored as follows: […]

[2] = system: Actinoplanes Strain ATCC 31682; assay: antibiotic sensitivity of Actinoplanes strain ATCC 31682; assay type: cell-based, Actinoplanes missouriensis
Description: as §1

[3] = system: Actinoplanes Strain ATCC 31683; assay: antibiotic sensitivity of Actinoplanes strain ATCC 31683; assay type: cell-based, Actinoplanes missouriensis
Description: as §1

[4] = bioautography of aglycone formation during hydrolysis; assay type: cell-based; details: during hydrolysis of A-4696 complex and individual factors
From the text: An additional factor, designated as E1, can also be isolated from the antibiotic A-4696 complex and may represent a degradation product. The chemical, physical, and biological properties of the factors indicate that they are new antibiotics and, except possibly for factor E1, that they are composed of the same peptide core (aglycone) and amino sugar, and varying amounts of glucose, mannose, and rhamnose. […] It is possible that the site of antimicrobial activity of the A-4696 complex and individual factors resides in the peptide pseudo-aglycone, with the factors being substantially differentiated by differences in their neutral sugar composition. The attached sugars may function chiefly to modulate solubility and other important pharmacodynamic parameters.

CCC(=O)O[C@H]1[C@H](O[C@@H]2[C@@H](C)[C@H](O[C@H]3C[C@@](C)(OC)[C@@H](O)[C@H](C)O3)[C@@H](C)C(=O)O[C@H](CC)[C@@](C)(O)[C@H](O)[C@@H](C)C(=O)[C@H](C)C[C@@]2(C)O)O[C@H](C)C[C@@H]1N(C)C [Erythromycin (estolate)]
Antibiotic sensitivity ([1]; 15 μg.): Sensitive
Antibiotic sensitivity ([2]; 15 μg.): Sensitive
Antibiotic sensitivity ([3]; 15 μg.): Sensitive

CC1(C)S[C@@H]2[C@H](NC(=O)Cc3ccccc3)C(=O)N2[C@H]1C(=O)O [Penicillin (G)]
Antibiotic sensitivity ([1]; 10 units): Sensitive
Antibiotic sensitivity ([2]; 10 units): Sensitive
Antibiotic sensitivity ([3]; 10 units): Sensitive

CO[C@H]1/C=C/O[C@@]2(C)Oc3c(C)c(O)c4c(O)c(c(/C=N/N5CCN(C)CC5)c(O)c4c3C2=O)NC(=O)/C(C)=C\C=C\[C@H](C)[C@H](O)[C@@H](C)[C@@H](O)[C@@H](C)[C@H](OC(C)=O)[C@@H]1C [Rifampin]
Antibiotic sensitivity ([1]; 5 μg.): Sensitive
Antibiotic sensitivity ([2]; 5 μg.): Sensitive
Antibiotic sensitivity ([3]; 5 μg.): Sensitive

O=C(N[C@H](CO)[C@H](O)c1ccc([N+](=O)[O-])cc1)C(Cl)Cl [Chloromycetin]
Antibiotic sensitivity ([1]; 30 μg.): Sensitive
Antibiotic sensitivity ([2]; 30 μg.): Sensitive
Antibiotic sensitivity ([3]; 30 μg.): Sensitive

COC(=O)C1NC(=O)C2NC(=O)C(NC(=O)C3NC(=O)C4NC(=O)C(Cc5ccc(cc5)Oc5cc3cc(c5O)Oc3ccc(cc3Cl)C2OC2CC(N)C(O)C(C)O2)NC(=O)C(N)c2ccc(O)c(c2)Oc2cc4cc(O)c2C)c2ccc(O)c(c2)-c2c(O)cc(O)cc21 (stereo not shown) [pseudo-aglycone]
antimicrobial activity (bioautography) [4]: antimicrobially active

CO[C@@H]1[C@@H](OC(N)=O)[C@@H](O)[C@H](Oc2ccc3c(O)c(NC(=O)c4ccc(O)c(CC=C(C)C)c4)c(=O)oc3c2C)OC1(C)C [Novobiocin]
Antibiotic sensitivity ([1]; 30 μg.): Sensitive
Antibiotic sensitivity ([2]; 30 μg.): Sensitive
Antibiotic sensitivity ([3]; 30 μg.): Sensitive

[H]/N=C(/N)N[C@H]1[C@H](O)[C@@H](O)[C@H](O[C@@H]2O[C@@H](C)[C@](O)(C=O)[C@H]2O[C@@H]2O[C@@H](CO)[C@H](O)[C@@H](O)[C@@H]2NC)[C@@H](N/C(N)=N\[H])[C@@H]1O [Streptomycin]
Antibiotic sensitivity ([1]; 10 μg.): Sensitive
Antibiotic sensitivity ([2]; 10 μg.): Sensitive
Antibiotic sensitivity ([3]; 10 μg.): Sensitive

CN(C)C1C(=O)C(C(N)=O)=C(O)C2(O)C(=O)C3=C(O)c4c(O)cccc4C(C)(O)C3CC12 (stereo not shown) [Tetracycline]
Antibiotic sensitivity ([1]; 30 μg.): Sensitive
Antibiotic sensitivity ([2]; 30 μg.): Sensitive
Antibiotic sensitivity ([3]; 30 μg.): Sensitive

CN[C@H](CC(C)C)C(=O)N[C@H]1C(=O)N[C@@H](CC(N)=O)C(=O)N[C@H]2C(=O)N[C@H]3C(=O)N[C@H](C(=O)N[C@H](C(=O)O)c4cc(O)cc(O)c4-c4cc3ccc4O)[C@H](O)c3ccc(c(Cl)c3)Oc3cc2cc(c3O[C@@H]2O[C@H](CO)[C@@H](O)[C@H](O)[C@H]2O[C@H]2C[C@](C)(N)[C@H](O)[C@H](C)O2)Oc2ccc(cc2Cl)[C@H]1O [Vancomycin HCl]
Antibiotic sensitivity ([1]; 30 μg.): Sensitive
Antibiotic sensitivity ([2]; 30 μg.): Sensitive
Antibiotic sensitivity ([3]; 30 μg.): Sensitive

CC(=O)OCC1=C(C(=O)O)N2C(=O)[C@@H](NC(=O)Cc3cccs3)[C@H]2SC1 [Cephalothin (sodium)]
Antibiotic sensitivity ([1]; 30 μg.): Sensitive
Antibiotic sensitivity ([2]; 30 μg.): Sensitive
Antibiotic sensitivity ([3]; 30 μg.): Sensitive
